Data reported in US20170258756A1, “A Method for Topically Treating Actinic Keratosis on the Scalp with Ingenol 3-(3,5-diethylisoxazole-4-carboxylate)” (LEO Laboratories Limited, priority 2014, published 2017).

How the values were obtained:
[1] = tested on: actinic keratosis on the scalp; assay: Part 2 open label trial, 0.037% gel once daily for three consecutive days on the scalp; assay type: in vivo, human
Excerpt: The outcome for Part 2 is safety and efficacy in a once daily application for three consecutive days on the scalp. The efficacy in treating of the AK will be measured as reduction in AK count in the treated area of lesions which are not considered hyperkeratotic/hypertrophic.
In parallel the efficacy in treating of the AK will be measured as reduction in AK count in the treated area of lesions which are considered hyperkeratotic/hypertrophic.
The reduction in AK count will be performed at week 4 and 8 no matter the type of lesion. Also complete clearance of AKs in the treated area which are not considered hyperkeratotic/hypertrophic at week 8 will be measured.
To qualify for part 2 of the trial, the subjects must have 5-20 clinically visible and discrete AKs within 250 cm^2 area on the balding scalp (The balding part of the scalp should be greater than 25 cm^2 and up to approximately 250 cm^2). In addition to the requirement of 5-20 clinically typical, visible and discrete AKs within the selected treatment area, subjects may also have visible and discrete hyperkeratotic/hypertrophic lesions in this area. The subjects will be treated with a dose of 0.037% as a once daily three consecutive days treatment and followed for 8 weeks.
The trial consists of an initial part, where 18 subjects will be treated on the scalp. […] As this is a safety trial, it is considered justified to conduct this clinical trial as an open-label, uncontrolled trial. An early safety and tolerability evaluation will be performed following the 3 days treatment. If safety and tolerability is found acceptable by the Early Data Review Committee, and additional 44 subjects will be enrolled in order to expand safety observations and obtain an estimate of treatment efficacy.
The patients are scheduled for 7 visits: • Visit 1: within 21 days prior to day 1 • Visit 2: day 1 (application of trial medication) • Visit 3: […] (application of trial medication) • Visit 4: day 8 (+2 day) • Visit 5: week 2 (±2 day) • Visit 6: week 4 (±4 day) • Visit 7: week 8 (±7 day)
LSRs are evaluated at all visits following visit 1. AK lesion counts are performed on Visit 2, 6 and 7.
At Baseline (Day 1) and Visit 7 (Week 8), the investigator will make a clinical (visual and tactile) assessment of the extent of photo-damage in the treatment area with respect to 1) fine wrinkling, 2) coarse wrinkling, 3) mottled pigmentation, 4) roughness, 5) sallowness, 6) skin laxity, and 7) telangiectasia. Severity for each of these characteristics will be on a 5-point scale: None (0), Mild (1), Moderate (2), Severe (3), Extreme (4).
At Visit 7 (Week 8) the Investigator will make an overall clinical (visual and tactile) assessment of the subject's photo-damage change from baseline in the treatment area (including an integrated assessment of fine wrinkling, coarse wrinkling, mottled pigmentation, roughness, sallowness, skin laxity, and telangiectasia based on the subject's appearance at the baseline visit).
At Visit 7 (Week 8), the subjects will complete a self-assessment questionnaire evaluating the change in the 1) overall appearance of the skin and 2) overall feel of the skin after treatment. The scoring will be on a 5-point scale: Much worsened, Somewhat worsened, No change, somewhat improved, much improved.
The secondary response criteria will be analysed for the full analysis set and for the per protocol analysis set. The ratio of number of AK lesions at week 8 relative to baseline, excluding lesions identified at base line as hyperkeratotic/hypertrophic lesions, will be tabulated by treatment group. Separately for each treatment group, the rate and corresponding 95% confidence interval will be estimated from a negative binomial regression on the AK count at week 8 with the log baseline value as an offset variable. The same analysis will be performed for the subgroup of lesions identified as hyperkeratotic/hypertrophic at baseline. […]

[2] = tested on: actinic keratosis on the scalp; assay: Part 1 dose escalation trial, gel once daily for two consecutive days on the scalp (LSR / DLT); assay type: in vivo, human
Excerpt: Local skin reactions (LSRs) occurs sometimes in the treated area. Often LSRs are quantified by a scale evaluating the following types of skin reactions: erythema, flaking/scaling, crusting, swelling, vasiculation/postulation, and erosion/ulceration which are categorized into categories 0-4 depending on the severity of the reactions.
Dose Limiting toxicity (DLT) is defined as the following LSR: […]
Erosion/ulceration grade 4.
Or other clinically relevant signs or symptoms observed, which the Investigator judges to be counted as a DLT. Maximum tolerated dose (MTD) is declared as dose level at which less than 4 subjects out of experience a DLT of cohort of 12 subjects.
Part 1 was a dose escalation study conducted with a once daily application of trial medication for two consecutive days and continued until the MTD was identified.
Dose escalation proceeded if the safety and tolerability data of the subject up to day 8 was reviewed and considered satisfactory. The treatment consisted of once daily treatment for 2 consecutive days. Up to 5 different doses may be investigated in cohorts of […]. The number of subjects in each cohort depended on the number of observed DLTs. However, the MTD was always be confirmed in a cohort of 12 subjects. […] Dose escalation was stopped at the 0.075% dose level as the investigators in this study felt that the application site adverse events, although manageable, could pose a problem for some patients. […] Part 2 is a study of the efficacy of the 0.037% dose identified in part 1 in a three day regimen.
Part 1: Trial medication, ingenol 3-(3,5-diethylisoxazole-4-carboxylate) gel, will be applied to the treatment area once daily for two consecutive days until the maximum tolerated dose has been reached for each formulation. Up to five different doses of active compound in gel may be investigated in cohorts 12 subjects.
Predefined grades of Local Skin Responses (LSRs) will constitute dose limiting toxicity (DLT). The maximum tolerated dose is defined as the highest dose level at which less than 4 out of12 subjects experience a Dose limiting toxicity.
The doses will be administered in an escalating manner following review of safety and tolerability data performed by the dose escalation committee. Evaluation of the safety and tolerability data will be performed after Visit 5/day 8. Then subjects will be followed for 8 weeks after first application of investigational product.

[3] = tested on: dermal tumours; assay: in vivo studies in mice, effects on dermal tumours; conditions: compared with ingenol mebutate
Excerpt: The exact mechanism of action of ingenol 3-(3,5-diethylisoxazole-4-carboxylate) continues to be investigated, but it is believed that ingenol 3-(3,5-diethylisoxazole-4-carboxylate) has a dual mechanism of action inducing cell death as well as stimulation of immune response.

CCc1noc(CC)c1C(=O)O[C@H]1C(C)=C[C@]23C(=O)[C@@H](C=C(CO)[C@@H](O)[C@]12O)[C@H]1[C@@H](C[C@H]3C)C1(C)C [ingenol 3-(3,5-diethylisoxazole-4-carboxylate)]
reduction in AK count ([1]; once daily three consecutive days, scalp, 62 patients, week 8): 79%
complete clearance ([1]; once daily three consecutive days, scalp, week 8): 40%
improvement in appearance and feel reported by subjects ([1]; three day regimen, cosmetic outcome self-assessment, % of subjects): more than 90%
photo damage improved, share of patients ([1]; three day regimen, investigator assessment): two-thirds
time at which side-effects maximize ([1]; three day regimen, rapid decline thereafter): 4 days
side-effects ([1]; three day regimen, scalp): considered acceptable
tolerability of selected dose with respect to LSRs and application site reaction ([2]; 0.037%, two days dosing regimen): well tolerated
subjects meeting dose limiting toxicity (DLT) criteria ([2]; two day regimen, dose escalation up to 0.075%): no subjects met the predefined criteria for DLT
dose level at which dose escalation was stopped ([2]; two day regimen, stopped because of application site adverse events, manageable): 0.075%
tolerability of 0.037% and 0.05% doses ([2]; two day treatment, compared with 0.075%): clearly better tolerated
efficacy in eliminating dermal tumours [3]: more efficacious than ingenol mebutate
